From the CheMixHub viscosity set

Experiment: xn = mol fraction of the nth substance listed

COCCOCCOCCO + CN(CCO)CCO
viscosity [mPa·s], 101.33 kPa
Settings | x2 = 0.1004 | x2 = 0.2133 | x2 = 0.2964 | x2 = 0.3993 | x2 = 0.4991 | x2 = 0.5993 | x2 = 0.7001 | x2 = 0.8006 | x2 = 0.9002
298.15 K | 6.741 | 8.012 | 9.103 | 10.85 | 13.35 | 17.08 | 22.81 | 31.15 | 50.17
313.15 K | 4.491 | 5.038 | 5.882 | 6.508 | 7.732 | 9.412 | 12.03 | 15.99 | 22.23
323.15 K | 3.445 | 3.861 | 4.307 | 4.93 | 5.674 | 6.845 | 8.383 | 10.78 | 14.36

CCCBr + ClC(Cl)(Cl)Cl
viscosity [mPa·s], 101 kPa
Settings | 293.15 K | 303.15 K | 313.15 K | 323.15 K
x1 = 0.143 | 0.855 | 0.76 | 0.678 | 0.61
x1 = 0.294 | 0.775 | 0.691 | 0.621 | 0.562
x1 = 0.445 | 0.7 | 0.625 | 0.565 | 0.512
x1 = 0.625 | 0.637 | 0.581 | 0.52 | 0.472

CCCCOC(=O)c1ccccc1 + CCCCCCCCCCCC
101 kPa
Settings | viscosity [mPa·s]
298.15 K, x2 = 0.0369 | 2.578
298.15 K, x2 = 0.0748 | 2.463
298.15 K, x2 = 0.1143 | 2.347
298.15 K, x2 = 0.1505 | 2.251
298.15 K, x2 = 0.1939 | 2.149
298.15 K, x2 = 0.2329 | 2.064
298.15 K, x2 = 0.2775 | 1.977
298.15 K, x2 = 0.3263 | 1.893
298.15 K, x2 = 0.3672 | 1.834
298.15 K, x2 = 0.4144 | 1.759
298.15 K, x2 = 0.4576 | 1.702
298.15 K, x2 = 0.5085 | 1.649
298.15 K, x2 = 0.5525 | 1.594
298.15 K, x2 = 0.6026 | 1.549
298.15 K, x2 = 0.6499 | 1.506
298.15 K, x2 = 0.7176 | 1.457
298.15 K, x2 = 0.7662 | 1.428
298.15 K, x2 = 0.8184 | 1.399
298.15 K, x2 = 0.8852 | 1.372
308.15 K, x2 = 0.0565 | 2.041
308.15 K, x2 = 0.0869 | 1.968
308.15 K, x2 = 0.1399 | 1.857
308.15 K, x2 = 0.1662 | 1.807
308.15 K, x2 = 0.2145 | 1.722
308.15 K, x2 = 0.2546 | 1.662
308.15 K, x2 = 0.3019 | 1.596
308.15 K, x2 = 0.3408 | 1.548
308.15 K, x2 = 0.3915 | 1.49
308.15 K, x2 = 0.4297 | 1.451
308.15 K, x2 = 0.4845 | 1.4
308.15 K, x2 = 0.5231 | 1.367
308.15 K, x2 = 0.5719 | 1.328
308.15 K, x2 = 0.6276 | 1.287
308.15 K, x2 = 0.68 | 1.256
308.15 K, x2 = 0.7278 | 1.229
308.15 K, x2 = 0.7842 | 1.202
308.15 K, x2 = 0.8501 | 1.176
308.15 K, x2 = 0.9392 | 1.151
318.15 K, x2 = 0.0245 | 1.764
318.15 K, x2 = 0.0618 | 1.688
318.15 K, x2 = 0.101 | 1.612
318.15 K, x2 = 0.1422 | 1.543
318.15 K, x2 = 0.181 | 1.487
318.15 K, x2 = 0.2247 | 1.427
318.15 K, x2 = 0.2652 | 1.376
318.15 K, x2 = 0.3117 | 1.325
318.15 K, x2 = 0.355 | 1.282
318.15 K, x2 = 0.4033 | 1.238
318.15 K, x2 = 0.4479 | 1.202
318.15 K, x2 = 0.5006 | 1.163
318.15 K, x2 = 0.5557 | 1.127
318.15 K, x2 = 0.604 | 1.099
318.15 K, x2 = 0.6185 | 1.091
318.15 K, x2 = 0.7124 | 1.045
318.15 K, x2 = 0.7679 | 1.024
318.15 K, x2 = 0.8278 | 1.006
318.15 K, x2 = 0.9612 | 0.974

ClCc1ccccc1 + COCCOC
298.15 K, 101 kPa
Settings | viscosity [mPa·s]
x2 = 0.135 | 1.176
x2 = 0.2599 | 1.026
x2 = 0.3758 | 0.908
x2 = 0.4836 | 0.807
x2 = 0.5841 | 0.716
x2 = 0.6781 | 0.635
x2 = 0.7662 | 0.564
x2 = 0.8489 | 0.506
x2 = 0.9267 | 0.453

O=S(=O)([O-])[O-].O=S(=O)([O-])[O-].O=S(=O)([O-])[O-].[Fe+3].[Fe+3] + O
323.15 K, 101.3 kPa
Settings | viscosity [mPa·s]
x1 = 0.0012 | 0.617
x1 = 0.0024 | 0.645
x1 = 0.00498 | 0.768
x1 = 0.00789 | 0.982
x1 = 0.0111 | 1.275

CCNCC + CNC(C)=O
308.15 K, 101 kPa
Settings | viscosity [mPa·s]
x2 = 0.0413 | 0.2729
x2 = 0.1815 | 0.4061
x2 = 0.3505 | 0.6727
x2 = 0.5056 | 1.02
x2 = 0.5776 | 1.254
x2 = 0.6715 | 1.563
x2 = 0.7881 | 2.064
x2 = 0.8957 | 2.614
x2 = 0.9724 | 3.097
